# Key:
# [1] = test system: HL-60(TB); experiment: Cytotoxicity against human HL-60(TB) cells assessed as cell growth at 100 uM after 48 hrs by sulforhodamine B assay relative to control; format: functional; conditions: HL-60, 48 h, read-out: Activity
# [2] = test system: UO-31; experiment: Cytotoxicity against human UO31 cells assessed as cell growth at 1 uM after 48 hrs by sulforhodamine B assay relative to control; format: functional; conditions: UO-31, 48 h, read-out: Activity
# [3] = test system: OVCAR-8; experiment: Cytotoxicity against human OVCAR8 cells assessed as cell growth at 100 uM after 48 hrs by sulforhodamine B assay relative to control; format: functional; conditions: OVCAR-8, 48 h, read-out: Activity
# [4] = test system: U-251; experiment: Cytotoxicity against human U251 cells assessed as cell growth at 100 uM after 48 hrs by sulforhodamine B assay relative to control; format: functional; conditions: U-251, 48 h, read-out: Activity
# [5] = test system: SK-OV-3; experiment: Cytotoxicity against human SKOV3 cells assessed as cell growth at 10 uM after 48 hrs by sulforhodamine B assay relative to control; format: functional; conditions: SK-OV-3, 48 h, read-out: Activity
# [6] = test system: UACC-257; experiment: Cytotoxicity against human UACC257 cells assessed as cell growth at 100 uM after 48 hrs by sulforhodamine B assay relative to control; format: functional; conditions: UACC-257, 48 h, read-out: Activity
# [7] = test system: NCI-H522; experiment: Cytotoxicity against human NCI-H522 cells assessed as cell growth at 0.01 uM after 48 hrs by sulforhodamine B assay relative to control; format: functional; conditions: NCI-H522, 48 h, read-out: Activity
# [8] = test system: DU-145; experiment: Cytotoxicity against human DU145 cells assessed as cell growth at 1 uM after 48 hrs by sulforhodamine B assay relative to control; format: functional; conditions: DU-145, 48 h, read-out: Activity
# [9] = test system: MDA-MB-231; experiment: Cytotoxicity against human MDA-MB-231 cells assessed as growth inhibition after 48 hrs by MTT assay; format: functional, cell-based; conditions: MDA-MB-231, 48 h
# [10] = test system: SNB-19; experiment: Cytotoxicity against human SNB19 cells assessed as cell growth at 0.01 uM after 48 hrs by sulforhodamine B assay relative to control; format: functional; conditions: SNB-19, 48 h, read-out: Activity
# [11] = test system: OVCAR-4; experiment: Cytotoxicity against human OVCAR4 cells assessed as growth inhibition after 48 hrs by sulforhodamine B assay; format: functional; conditions: OVCAR-4, 48 h
# [12] = test system: PC-3; experiment: Cytotoxicity against human PC3 cells assessed as growth inhibition after 48 hrs by sulforhodamine B assay; format: functional; conditions: PC-3, 48 h
# [13] = test system: OVCAR-3; experiment: Cytotoxicity against human OVCAR3 cells assessed as cell growth at 0.01 uM after 48 hrs by sulforhodamine B assay relative to control; format: functional; conditions: OVCAR-3, 48 h, read-out: Activity
# [14] = test system: TK-10; experiment: Cytotoxicity against human TK10 cells assessed as cell growth at 10 uM after 48 hrs by sulforhodamine B assay relative to control; format: functional; conditions: TK-10, 48 h, read-out: Activity
# [15] = test system: K562; experiment: Cytotoxicity against human K562 cells assessed as cell growth at 10 uM after 48 hrs by sulforhodamine B assay relative to control; format: functional; conditions: K562, 48 h, read-out: Activity
# [16] = test system: OVCAR-5; experiment: Cytotoxicity against human OVCAR5 cells assessed as cell growth at 100 uM after 48 hrs by sulforhodamine B assay relative to control; format: functional; conditions: OVCAR-5, 48 h, read-out: Activity
# [17] = test system: OVCAR-5; experiment: Cytotoxicity against human OVCAR5 cells assessed as cell growth at 0.01 uM after 48 hrs by sulforhodamine B assay relative to control; format: functional; conditions: OVCAR-5, 48 h, read-out: Activity
# [18] = test system: SN12C; experiment: Cytotoxicity against human SN12C cells assessed as cell growth at 1 uM after 48 hrs by sulforhodamine B assay relative to control; format: functional; conditions: read-out: Activity
# [19] = test system: NCI-H322M; experiment: Cytotoxicity against human NCI-H322M cells assessed as growth inhibition after 48 hrs by sulforhodamine B assay; format: functional
# [20] = test system: RXF 393; experiment: Cytotoxicity against human RXF393 cells assessed as cell growth at 10 uM after 48 hrs by sulforhodamine B assay relative to control; format: functional; conditions: RXF 393, 48 h, read-out: Activity
# [21] = test system: RXF 393; experiment: Cytotoxicity against human RXF393 cells assessed as cell growth at 1 uM after 48 hrs by sulforhodamine B assay relative to control; format: functional; conditions: RXF 393, 48 h, read-out: Activity
# [22] = test system: NCI/ADR-RES; experiment: Cytotoxicity against human NCI/ADR-RES cells assessed as cell growth at 0.01 uM after 48 hrs by sulforhodamine B assay relative to control; format: functional; conditions: read-out: Activity
# [23] = test system: COLO 205; experiment: Cytotoxicity against human COLO205 cells assessed as cell growth at 0.1 uM after 48 hrs by sulforhodamine B assay relative to control; format: functional; conditions: COLO 205, 48 h, read-out: Activity
# [24] = test system: HT-29; experiment: Cytotoxicity against human HT-29 cells assessed as cell growth at 10 uM after 48 hrs by sulforhodamine B assay relative to control; format: functional; conditions: HT-29, 48 h, read-out: Activity
# [25] = test system: NCI-H226; experiment: Cytotoxicity against human NCI-H226 cells assessed as growth inhibition after 48 hrs by sulforhodamine B assay; format: functional; conditions: NCI-H226, 48 h
# [26] = test system: HCC 2998; experiment: Cytotoxicity against human HCC2998 cells assessed as cell growth at 0.1 uM after 48 hrs by sulforhodamine B assay relative to control; format: functional; conditions: HCC 2998, 48 h, read-out: Activity
# [27] = test system: NCI-H460; experiment: Cytotoxicity against human NCI-H460 cells assessed as cell growth at 0.1 uM after 48 hrs by sulforhodamine B assay relative to control; format: functional; conditions: NCI-H460, 48 h, read-out: Activity
# [28] = test system: SN12C; experiment: Cytotoxicity against human SN12C cells assessed as cell growth at 0.1 uM after 48 hrs by sulforhodamine B assay relative to control; format: functional; conditions: read-out: Activity
# [29] = test system: NCI-H23; experiment: Cytotoxicity against human NCI-H23 cells assessed as cell growth at 0.01 uM after 48 hrs by sulforhodamine B assay relative to control; format: functional; conditions: NCI-H23, 48 h, read-out: Activity
# [30] = test system: MCF7; experiment: Cytotoxicity against human MCF7 cells assessed as cell growth at 1 uM after 48 hrs by sulforhodamine B assay relative to control; format: functional; conditions: MCF7, 48 h, read-out: Activity
# [31] = test system: HCT-116; experiment: Cytotoxicity against human HCT116 cells assessed as growth inhibition after 48 hrs by sulforhodamine B assay; format: functional; conditions: HCT-116, 48 h
# [32] = test system: NCI-H23; experiment: Cytotoxicity against human NCI-H23 cells assessed as cell growth at 100 uM after 48 hrs by sulforhodamine B assay relative to control; format: functional; conditions: NCI-H23, 48 h, read-out: Activity
# [33] = test system: UACC-257; experiment: Cytotoxicity against human UACC257 cells assessed as cell growth at 1 uM after 48 hrs by sulforhodamine B assay relative to control; format: functional; conditions: UACC-257, 48 h, read-out: Activity
# [34] = test system: MOLT-4; experiment: Cytotoxicity against human MOLT4 cells assessed as cell growth at 0.1 uM after 48 hrs by sulforhodamine B assay relative to control; format: functional; conditions: MOLT-4, 48 h, read-out: Activity
structure (smiles),measurement,setting,value
COc1ccc(-c2cc(/C=C/C(=O)c3cc(OC)c(OC)c(OC)c3)[nH]n2)cc1OC,growth at 100 µM,[1],-8%
same,growth at 1 µM,[2],67%
same,growth at 100 µM,[3],-84%
same,growth at 100 µM,[4],-94%
same,growth at 10 µM,[5],37%
same,growth at 100 µM,[6],-94%
same,growth at 0.01 µM,[7],89%
same,growth at 1 µM,[8],87%
same,IC50,[9],2 µM
same,growth at 0.01 µM,[10],91%
same,GI50,[11],1.62 µM
same,TGI,[11],7.17 µM
same,GI50,[12],1.99 µM
same,LC50,[12],48.2 µM
same,TGI,[12],10.3 µM
same,growth at 0.01 µM,[13],99%
same,growth at 10 µM,[14],7%
same,growth at 10 µM,[15],-1%
same,growth at 100 µM,[16],-70%
same,growth at 0.01 µM,[17],102%
same,growth at 1 µM,[18],87%
same,GI50,[19],2.02 µM
same,TGI,[19],6.03 µM
same,CC50,[19]; read-out: LC50 (the source's name),25 µM
same,growth at 10 µM,[20],-80%
same,growth at 1 µM,[21],80%
same,growth at 0.01 µM,[22],97%
same,growth at 0.1 µM,[23],89%
same,growth at 10 µM,[24],-87%
same,GI50,[25],1.93 µM
same,LC50 (concentration killing 50% of cells),[25],> 100 µM
same,TGI,[25],7.91 µM
same,growth at 0.1 µM,[26],100%
same,growth at 0.1 µM,[27],100%
same,growth at 0.1 µM,[28],99%
same,growth at 0.01 µM,[29],94%
same,growth at 1 µM,[30],53%
same,GI50,[31],0.42 µM
same,LC50,[31],5.18 µM
same,TGI,[31],1.79 µM
same,growth at 100 µM,[32],-50%
same,growth at 1 µM,[33],89%
same,growth at 0.1 µM,[34],95%

# From ChEMBL document CHEMBL4138123, “Design, synthesis and biological evaluation of novel pyrazolochalcones as potential modulators of PI3K/Akt/mTOR pathway and inducers of apoptosis in breast cancer cells” (Eur J Med Chem, 2017)
